In US6340686B1, “Thienopyrimidine compounds, their production and use” (Takeda Chemical Industries, Ltd., priority 1999, dated 2002):
Each block holds one compound with its values, some of them ahead of it.

Key:
[1] = molecular target: T1, GnRH receptors (rat pituitary anterior lobe membrane fraction) (Rattus norvegicus, UniProt P30969); assay: 125I-leuprorelin binding inhibition, rat pituitary anterior lobe membrane fraction
T1 construct: Anterior lobes of the pituitary glands were isolated from forty Wistar rats; from tissue; host or cells: anterior lobes of pituitary glands of male Wistar rats
T1 sequence (P30969 1-327): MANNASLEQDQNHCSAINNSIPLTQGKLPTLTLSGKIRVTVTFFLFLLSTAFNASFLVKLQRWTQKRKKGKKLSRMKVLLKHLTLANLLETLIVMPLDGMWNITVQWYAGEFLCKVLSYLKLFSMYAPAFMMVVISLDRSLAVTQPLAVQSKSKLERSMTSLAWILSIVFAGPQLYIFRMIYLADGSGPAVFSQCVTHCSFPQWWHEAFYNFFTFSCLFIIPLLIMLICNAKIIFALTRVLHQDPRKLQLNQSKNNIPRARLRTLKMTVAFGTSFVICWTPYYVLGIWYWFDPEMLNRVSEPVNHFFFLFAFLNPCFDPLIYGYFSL
Method: (1) Preparation of ^125I-leuprorelin To a tube containing 10 μl of a 3×10^−4M aqueous solution of leuprorelin and 10 μl of 0.01 mg/ml lactoperoxidase, 10 μl (37MBq) of a solution of Na^125I was added. After stirring, 10 μl of 0.001% H2O2 was added, and a reaction was carried out at room temperature for 20 minutes. By adding 700 μl of a 0.05% TFA (trifluoroacetic acid) solution, the reaction was stopped, followed by purification by reversed-phase HPLC. The HPLC conditions used are shown below. ^125I-leuprorelin was eluted at a retention time of 26 to 27 minutes. […] To determine maximum binding quantity, a reaction mixture of 2 μl of 60% DMSO and 10 μl of 38 nM ^125I-leuprorelin was prepared. […] After this filtration, the radioactivity of ^125I-leuprorelin remaining on the filter paper was measured with a γ-counter. The expression (TB-SB)/(TB-NSB)×100 (where SB=radioactivity with the compound added, TB=maximum bound radioactivity, NSB=nonspecifically bound radioactivity) was calculated to find the binding inhibition rate (%) of each test compound. […]

human GnRH receptor = molecular target: T2, human GnRH receptor (Homo sapiens, UniProt P30968); assay: 125I-leuprorelin binding inhibition, CHO cell membrane fraction containing human GnRH receptor; conditions: 25° C. for 60 minutes, Hill plot
T2 construct: expressed in transfected cells; host or cells: CHO (Chinese hamster ovary) cells
T2 sequence (P30968 1-328): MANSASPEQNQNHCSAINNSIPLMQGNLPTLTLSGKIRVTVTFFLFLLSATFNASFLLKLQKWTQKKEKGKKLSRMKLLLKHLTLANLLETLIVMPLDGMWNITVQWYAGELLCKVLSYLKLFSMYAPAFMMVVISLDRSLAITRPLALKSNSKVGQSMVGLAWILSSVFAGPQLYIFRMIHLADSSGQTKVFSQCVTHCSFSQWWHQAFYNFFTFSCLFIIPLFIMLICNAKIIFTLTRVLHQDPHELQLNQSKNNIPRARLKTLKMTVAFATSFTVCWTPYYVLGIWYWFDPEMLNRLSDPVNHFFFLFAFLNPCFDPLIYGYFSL
Method: To the cell pellet, 10 ml of a cell homogenate buffer (10 mM NaHCO3, 5 mM EDTA, pH 7.5) was added, followed by homogenization using the Polytron homogenizer. […] This precipitate was suspended in 2 ml of an assay buffer and centrifuged at 100,000×g for 1 hour. The membrane fraction recovered as a precipitate was again suspended in 20 ml of the assay buffer, dispensed, and stored at −80° C. before use upon thawing. […] To determine maximum binding quantity, a reaction mixture of 2 μl of 60% DMSO and 10 μl of 38 nM ^125I-leuprorelin was prepared. […] Where the membrane fraction of the CHO with human GnRH receptors expressed was used, the reaction was carried out at 25° C. for 60 minutes. After each reaction, the reaction mixture was aspirated and filtered through a polyethyleneimine-treated Whatman glass filter (GF-F). After this filtration, the radioactivity of ^125I-leuprorelin remaining on the filter paper was measured with a γ-counter. The expression (TB-SB)/(TB-NSB)×100 (where SB=radioactivity with the compound added, TB=maximum bound radioactivity, NSB=nonspecifically bound radioactivity) was calculated to find the binding inhibition rate (%) of each test compound. Furthermore, the inhibition rate was determined by varying the concentration of the test substance and the 50% inhibitory concentration (IC50 value) of the compound was calculated from Hill plot.

plasma LH = assay: Suppression of plasma LH in castrated monkeys; type: in vivo, cynomolgus monkeys (Macaca fascicularis); conditions: castrated male cynomolgus monkeys
Method: The Example compound No. 2 was orally administered to castrated male cynomolgus monkeys (Macaca fascicularis), and plasma LH was quantified. The male cynomolgus monkeys, used at 4 years 9 months to 6 years 3 months of age at time of experimentation, had been castrated more than 3 months prior to the examination. Test animals [n=3] were given 30 mg/kg (3 ml/kg) of the compound suspended in 0.5% methyl cellulose at a final concentration of 1% by oral administration, and control animals [n=2] were given 3 ml/kg of the 0.5% methyl cellulose dispersant alone by oral administration. At 24 hours and immediately before administration and at 2, 4, 6, 8, 24, and 48 hours after administration, blood was collected for heparinized plasma samples via the femoral vein and immediately stored under freezing conditions.
Plasma LH concentrations were determined by a bioassay using mouse testicular cells. The testicular cells were collected from male BALB/c mice (8 to 9 weeks of age) and washed three times with 1 ml of Dulbecco's modified Eagle medium. (DMEM-H) containing 20 mM HEPES and 0.2% BSA per testis. After incubation at 37° C. for 1 hour, the cells were passed through a nylon mesh filter (70 μm) and dispensed to test tubes at 8×10^5 cells/tube. After the cells were washed twice with 0.4 ml of DMEM-H, 0.4 ml of a DMEM-H solution containing either equine LH (Sigma Company), as the standard LH, or monkey plasma, previously diluted up to 300 fold, as the test sample, was added, followed by a reaction at 37° C. for 2 hours. The testosterone concentration in the culture supernatant was determined by a radioimmunoassay (CIS Diagnostics Company), and the LH concentration in the test monkey plasma was calculated from the standard curve for the standard equine LH.
The results are given together in FIG. 1. […]

IC50 ([1]; 125I-leuprorelin binding, calculated from Hill plot): 0.5 µM
inhibition at 1 µM ([1]; read-out: binding inhibition rate (%) Rat (1 μM), 1 μM compound, 125I-leuprorelin, 4° C. for 90 minutes): 64%
IC50 (human GnRH receptor): 0.0002 µM
Compound: CONC(=O)Nc1ccc(-c2sc3c(c2CN2Cc4ccccc4C2)c(=O)n(-c2ccccc2)c(=O)n3Cc2c(F)cccc2F)cc1 [Ex. Compd. No. 4-2]

melting point: 220 to 222 °C
Compound: CN(Cc1ccccc1)Cc1c(-c2ccc(NC(=O)NCCO)cc2)sc2c1c(=O)n(-c1ccccc1)c(=O)n2Cc1c(F)cccc1F [Example 7, 5-(N-Benzyl-N-methylaminomethyl)-1-(2,6-difluorobenzyl)-6-[4-[3-(2-hydroxyethyl)ureido]phenyl]-3-phenylthieno[2,3-d]pyrimidine-2,4(1H,3H)-dione]

melting point: 164 to 165 °C
Compound: CN(Cc1ccccc1)Cc1c(-c2ccc(NC(=O)NO)cc2)sc2c1c(=O)n(-c1ccccc1)c(=O)n2Cc1c(F)cccc1F [Example 5, 5-(N-Benzyl-N-methylaminomethyl)-1-(2,6-difluorobenzyl)-6-[4-(3-hydroxyureido)phenyl]-3-phenylthieno[2,3-d]pyrimidine-2,4(1H,3H)-dione]

Compound: CONC(=O)Nc1ccc(-c2sc3c(c2CN(C)Cc2ccccc2)c(=O)n(-c2ccccc2)c(=O)n3Cc2c(F)cccc2F)cc1.Cl [Ex. Compd. No. 2, 5-(N-Benzyl-N-methylaminomethyl)-1-(2,6-difluorobenzyl)-6-[4-(3-methoxyureido)phenyl]-3-phenylthieno[2,3-d]pyrimidine-2,4(1H,3H)-dione hydrochloride]
plasma LH concentration, percentage of the baseline LH concentration immediately before administration (plasma LH; 30 mg/kg oral in 0.5% methyl cellulose, by 24 hours after administration): ≤ 20%
plasma LH concentration at 48 hours after administration (plasma LH; 30 mg/kg oral, 48 hours after administration): re-elevation of the plasma LH concentration was noted
effect on blood LH concentration (plasma LH; administered orally, 30 mg/kg): significant depressive effect on blood LH concentration
